Results taken from US11465983B2, “USP7 inhibitors for treating multiple myeloma” (Dana-Farber Cancer Institute, Inc., priority 2017, dated 2022).

Biological target: USP7 (Homo sapiens, UniProt Q93009)
Experiment: Ub-AMC assay (USP7 assay)
Assay type: biochemical
Parameters: fused on or other part: His tag from pET28aLIC; removed by thrombin for the catalytic domain, no removal step given for the full length
Settings: for IC50: USP7 assay
Description: USP7 and mutants were tested for their activity in Ubiquitin-AMC assay in presence or absence of inhibitors. […] For the same assay USP7 full length WT and Q351 mutant were used at 50 nM. […] The reaction was incubated 30 min at room temperature prior to the addition of 2 uM Ubiquitin-AMC (Boston Biochem) substrate. […] The calculated initial rate values were plotted against inhibitor concentrations to determine IC50s. All the experimental data were plotted using Prism GraphPad. FIG. 2A illustrates the structure guided optimization for the inhibition of USP7.
ND refers to not disclosed.

Chain of USP7 (Q93009 208-560 limits assumed): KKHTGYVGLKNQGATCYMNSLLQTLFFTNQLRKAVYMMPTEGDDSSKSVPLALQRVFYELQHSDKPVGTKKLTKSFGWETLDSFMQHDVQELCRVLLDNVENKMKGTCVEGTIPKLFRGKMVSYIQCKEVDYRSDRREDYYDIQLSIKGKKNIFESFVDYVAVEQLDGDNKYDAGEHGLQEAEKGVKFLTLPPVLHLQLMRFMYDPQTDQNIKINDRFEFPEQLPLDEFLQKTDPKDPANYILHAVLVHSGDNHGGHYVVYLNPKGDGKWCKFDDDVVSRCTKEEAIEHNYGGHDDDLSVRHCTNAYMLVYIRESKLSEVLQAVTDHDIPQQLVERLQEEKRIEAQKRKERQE

Molecule | IC50 [µM] | fold less active than its enantiomer compound 10 (USP7 inhibition, FIG. 2A) [fold]
7-Chloro-3-((4-hydroxy-1-(3-phenylpropyl)piperidin-4-yl)methyl)quinazolin-4(3H)-one [Compound 4] | > 10 | –
C[C@H](CC(=O)N1CCC(O)(Cn2cnc3cc(Cl)ccc3c2=O)CC1)c1ccccc1 [Compound 1, (R)-7-Chloro-3-((4-hydroxy-1-(3-phenylbutanoyl)piperidin-4-yl)methyl)quinazolin-4(3H)-one] | < 0.2 | –
O=C(CCc1ccccc1)N1CCC(Cn2cnc3cc(Cl)ccc3c2=O)CC1 [Compound 2, 7-Chloro-3-((1-(3-phenylpropanoyl)piperidin-4-yl)methyl)quinazolin-4(3H)-one] | < 0.2 | –
O=C(CCc1ccccc1)N1CCC(O)(Cn2cnc3cc(Cl)ccc3c2=O)C1 (stereo not drawn) [Compound 5, 7-chloro-3-((3-hydroxy-1-(3-phenylpropanoyl)pyrrolidin-3-yl)methyl)quinazolin-4(3H)-one] | > 10 | –
CC(=O)N1CCC(O)(Cn2cnc3cc(Cl)ccc3c2=O)CC1 [Compound 6, 3-((1-Acetyl-4-hydroxypiperidin-4-yl)methyl)-7-chloroquinazolin-4(3H)-one] | > 10 | –
C[C@@H](CC(=O)N1CCC(O)(Cn2cnc3cc(NC(=O)CCN4CCN(C)CC4)ccc3c2=O)CC1)c1ccccc1 [Compound 11, (S)—N-(3-((4-Hydroxy-1-(3-phenylbutanoyl)piperidin-4-yl)methyl)-4-oxo-3,4-dihydroquinazolin-7-yl)-3-(4-methylpiperazin-1-yl)propanamide] | < 0.2 | 80
CC(CC(=O)N1CCC(O)(Cn2cnc3cc(NC(=O)CCN4CCN(C)CC4)ccc3c2=O)CC1)c1ccccc1 (stereo not drawn) [Compound 12] | 0.2 to 1 | –
CC(C)C(CC(=O)N1CCC(O)(Cn2cnc3cc(NC(=O)CCN4CCN(C)CC4)ccc3c2=O)CC1)c1ccccc1 (stereo not drawn) [Compound 13] | 0.2 to 1 | –
C[C@H](CC(=O)N1CCC(O)(Cn2cnc3cc(NC(=O)CCN4CCOCC4)ccc3c2=O)CC1)c1ccccc1 [Compound 14, (R)—N-(3-((4-hydroxy-1-(3-phenylbutanoyl)piperidin-4-yl)methyl)-4-oxo-3,4-dihydroquinazolin-7-yl)-3-morpholinopropanamide] | < 0.2 | –
C[C@H](CC(=O)N1CCC(O)(Cn2cnc3cc(NC(=O)CCN(C)C)ccc3c2=O)CC1)c1ccccc1 [Compound 15, (R)-3-(Dimethylamino)-N-(3-((4-hydroxy-1-(3-phenylbutanoyl)piperidin-4-yl)methyl)-4-oxo-3,4-dihydroquinazolin-7-yl)propanamide] | < 0.2 | –
CC(CC(=O)N1CCC(O)(Cn2cnc3cc(NC(=O)CCn4ccnc4)ccc3c2=O)CC1)c1ccccc1 (stereo not drawn) [Compound 16] | < 0.2 | –
Cn1cc(C(=O)CCl)cc1C(=O)NCCCCC(=O)N1CCC(O)(Cn2cnc3cc(Cl)ccc3c2=O)CC1 [Compound 18] | 1 to 10 | –
O=C(NCCCCC(=O)N1CCC(O)(Cn2cnc3cc(Cl)ccc3c2=O)CC1)c1ccc2c(c1)CCCN2C(=O)CCl [Compound 19] | 1 to 10 | –
C=CCCC(=O)N1CCC(O)(Cn2cnc3cc(Cl)ccc3c2=O)CC1 [Compound 20] | > 10 | –
N[C@H](Cc1ccccc1)C(=O)N1CCC(O)(Cn2cnc3cc(Cl)ccc3c2=O)CC1 [Compound 21] | > 10 | –
N[C@@H](Cc1ccccc1)C(=O)N1CCC(O)(Cn2cnc3cc(Cl)ccc3c2=O)CC1 [Compound 22] | > 10 | –
O=C(CCc1ccc(Br)cc1)N1CCC(O)(Cn2cnc3cc(Cl)ccc3c2=O)CC1 [Compound 23] | > 10 | –
O=C(CCc1cccc(Br)c1)N1CCC(O)(Cn2cnc3cc(Cl)ccc3c2=O)CC1 [Compound 24] | > 10 | –
O=C(C1CCc2ccccc2C1)N1CCC(O)(Cn2cnc3cc(Cl)ccc3c2=O)CC1 (stereo not drawn) [Compound 25] | > 10 | –
O=C(/C=C/c1ccccc1)N1CCC(O)(Cn2cnc3cc(Cl)ccc3c2=O)CC1 [Compound 26] | > 10 | –
CC(C)(CC(=O)N1CCC(O)(Cn2cnc3cc(Cl)ccc3c2=O)CC1)c1ccccc1 [Compound 28] | > 10 | –
CC(Cc1ccccc1)C(=O)N1CCC(O)(Cn2cnc3cc(Cl)ccc3c2=O)CC1 (stereo not drawn) [Compound 29] | 0.2 to 1 | –

Molecule | IC50 [µM] | fold less active than its enantiomer compound 10 (USP7 inhibition, FIG. 2A) [fold]
O=C(C1CC1c1ccccc1)N1CCC(O)(Cn2cnc3cc(Cl)ccc3c2=O)CC1 (stereo not drawn) [Compound 30] | 1 to 10 | –
O=C(COc1ccccc1)N1CCC(O)(Cn2cnc3cc(Cl)ccc3c2=O)CC1 [Compound 31] | > 10 | –
O=C([C@@H](O)Cc1ccccc1)N1CCC(O)(Cn2cnc3cc(Cl)ccc3c2=O)CC1 [Compound 32] | > 10 | –
O=C(C[C@H](O)c1ccccc1)N1CCC(O)(Cn2cnc3cc(Cl)ccc3c2=O)CC1 [Compound 33] | > 10 | –
O=C(CCc1ccccn1)N1CCC(O)(Cn2cnc3cc(Cl)ccc3c2=O)CC1 [Compound 34] | > 10 | –
O=C(CCc1cccnc1)N1CCC(O)(Cn2cnc3cc(Cl)ccc3c2=O)CC1 [Compound 35] | > 10 | –
O=C(NCc1ccccc1)N1CCC(O)(Cn2cnc3cc(Cl)ccc3c2=O)CC1 [Compound 36] | > 10 | –
O=c1c2ccc(Cl)cc2ncn1CC1(O)CCN(C(=S)NCc2ccccc2)CC1 [Compound 37] | > 10 | –
CN(Cc1ccccc1)C(=O)N1CCC(O)(Cn2cnc3cc(Cl)ccc3c2=O)CC1 [Compound 38] | 0.2 to 1 | –
CCN(Cc1ccccc1)C(=O)N1CCC(O)(Cn2cnc3cc(Cl)ccc3c2=O)CC1 [Compound 39] | 0.2 to 1 | –
O=C(N1CCC(O)(Cn2cnc3cc(Cl)ccc3c2=O)CC1)N(Cc1ccccc1)Cc1ccccc1 [Compound 40] | > 10 | –
C[C@H](c1ccccc1)N(C)C(=O)N1CCC(O)(Cn2cnc3cc(Cl)ccc3c2=O)CC1 [Compound 41] | > 10 | –
C[C@@H](c1ccccc1)N(C)C(=O)N1CCC(O)(Cn2cnc3cc(Cl)ccc3c2=O)CC1 [Compound 42] | > 10 | –
O=C(CCl)NCCC(=O)N1CCC(O)(Cn2cnc3cc(Cl)ccc3c2=O)CC1 [Compound 44] | > 10 | –
C=CC(=O)NCCCC(=O)N1CCC(O)(Cn2cnc3cc(Cl)ccc3c2=O)CC1 [Compound 46] | > 10 | –
CC(C)C(CC(=O)N1CCC(O)(Cn2cnc3cc(NC(=O)CCN4CCN(C)CC4)ccc3c2=O)CC1)c1ccccc1 (stereo not drawn) [Compound 47] | < 0.2 | –
CN1CCN(CCC(=O)Nc2ccc3c(=O)n(CC4(O)CCN(C(=O)CC(c5ccccc5)c5ccccc5)CC4)cnc3c2)CC1 [Compound 48] | < 0.2 | –
CN1CCN(CCC(=O)Nc2ccc3c(=O)n(CC4(O)CCN(C(=O)C(Cc5ccccc5)c5ccccc5)CC4)cnc3c2)CC1 (stereo not drawn) [Compound 49] | > 10 | –
CC(=O)Nc1cccc2c(=O)n(CC3(O)CCN(C(=O)C[C@@H](C)c4ccccc4)CC3)cnc12 [Compound 50] | 1 to 10 | –
O=C(CCn1cccc1)N1CCC(O)(Cn2cnc3cc(Cl)ccc3c2=O)CC1 [Compound 51] | > 10 | –
O=C(CCc1ccncc1)N1CCC(O)(Cn2cnc3cc(Cl)ccc3c2=O)CC1 [Compound 52] | > 10 | –
COc1ccc(CCC(=O)N2CCC(O)(Cn3cnc4cc(Cl)ccc4c3=O)CC2)cc1 [Compound 53] | > 10 | –

Molecule | IC50 [µM] | fold less active than its enantiomer compound 10 (USP7 inhibition, FIG. 2A) [fold]
O=C(CCc1ccc(F)cc1)N1CCC(O)(Cn2cnc3cc(Cl)ccc3c2=O)CC1 [Compound 54] | 0.2 to 1 | –
O=C(CCC1CCCCC1)N1CCC(O)(Cn2cnc3cc(Cl)ccc3c2=O)CC1 [Compound 55] | > 10 | –
O=C(CCc1ccccc1)N1CCC(O)(Cn2cnc3cc([N+](=O)[O-])ccc3c2=O)CC1 [Compound 56] | > 10 | –
Nc1ccc2c(=O)n(CC3(O)CCN(C(=O)CCc4ccccc4)CC3)cnc2c1 [Compound 57] | > 10 | –
Nc1ccc2c(c1)NCN(CC1(O)CCN(C(=O)CCc3ccccc3)CC1)C2=O [Compound 58] | > 10 | –
C=CC(=O)N[C@@H](Cc1ccccc1)C(=O)N1CCC(O)(Cn2cnc3cc(Cl)ccc3c2=O)CC1 [Compound 59] | > 10 | –
O=C(CCc1ccccc1)N1CCC(Cn2cnc3cc(Cl)ccc3c2=O)CC1 [Compound 60] | > 10 | –
O=C(CCc1ccc([N+](=O)[O-])cc1)N1CCC(O)(Cn2cnc3cc(Cl)ccc3c2=O)CC1 [Compound 61] | > 10 | –
O=C(CF)N[C@@H](Cc1ccccc1)C(=O)N1CCC(O)(Cn2cnc3cc(Cl)ccc3c2=O)CC1 [Compound 62] | > 10 | –
[N-]=[N+]=NCCOCCOCC(=O)Nc1ccc2c(=O)n(CC3(O)CCN(C(=O)CCc4ccccc4)CC3)cnc2c1 [Compound 63] | > 10 | –
CC(=O)Nc1ccc2c(=O)n(CC3(O)CCN(C(=O)CCc4ccccc4)CC3)cnc2c1 [Compound 64] | 1 to 10 | –
O=C(C1CCCN1c1ccccc1)N1CCC(O)(Cn2cnc3cc(Br)ccc3c2=O)CC1 (stereo not drawn) [Compound 65] | > 10 | –
O=C(CCc1ccc(F)cc1)N1CCC(O)(Cn2cnc3cc(Cl)ccc3c2=O)C1 (stereo not drawn) [Compound 66] | > 10 | –
O=C(C#Cc1ccccc1)N1CCC(O)(Cn2cnc3cc(Cl)ccc3c2=O)CC1 [Compound 67] | > 10 | –
O=C(CCc1ccccc1)N1CCC(O)(Cn2cnc3ccc([N+](=O)[O-])cc3c2=O)CC1 [Compound 68] | > 10 | –
Nc1ccc2ncn(CC3(O)CCN(C(=O)CCc4ccccc4)CC3)c(=O)c2c1 [Compound 69] | > 10 | –
O=c1c2ccc(Cl)cc2ncn1CC1(O)CCN(c2ccccc2)CC1 [Compound 70] | > 10 | –
O=C(c1ccc2c(Cl)c3c(nc2c1)CCCC3)N1CCC(O)(Cn2cnc3cc(Cl)ccc3c2=O)CC1 [Compound 71] | > 10 | –
C[C@H](Cc1ccccc1)C(=O)N1CCC(O)(Cn2cnc3cc(Cl)ccc3c2=O)CC1 [Compound 72] | 0.2 to 1 | –
C[C@@H](Cc1ccccc1)C(=O)N1CCC(O)(Cn2cnc3cc(Cl)ccc3c2=O)CC1 [Compound 73] | > 10 | –
O=C([C@@H]1C[C@H]1c1ccccc1)N1CCC(O)(Cn2cnc3cc(Cl)ccc3c2=O)CC1 [Compound 74] | > 10 | –
